US9290476B2, “Methylene linked quinolinyl modulators of RORγt” (Janssen Pharmaceutica NV, priority 2012, dated 2016)
Where a name gives a salt, the structure may show the parent alone. Read-outs that look alike come from different tables or passages of the source.

Experiments:
human RORγt LBD = human RORγt LBD (Homo sapiens (Human), UniProt P51449); assay: RORγt reporter assay (GAL4-RORγt LBD luciferase in HEK293T cells); type: cell-based; details: for IC50 / RORγt reporter Assay, % inhibition @ 6 μM: HEK293T cells; for IC50: 24 hours compound treatment; for inhibition at 6 µM: HEK-293T, read-out: RORγt reporter Assay, % inhibition @ 6 μM, HEK293T cells, 6 μM
In short: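 HEK293T cells transiently co-transfected with GAL4-DBD–wild-type human RORγt LBD (pBIND) and GAL4-responsive firefly luciferase reporter (pGL4.31); renilla luciferase from pBIND normalises transfection/viability. Cells in phenol-red-free DMEM, 5% lipid-reduced FCS, treated with compound 24 h. Firefly/renilla ratio plotted against compound concentration.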

[1] = biological target: human RORγt ligand binding domain (RORγt LBD) (Homo sapiens (Human), UniProt P51449); assay: RORγt ThermoFluor assay (thermal shift binding affinity); details: estimated from thermal shift
In short: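 Thermal shift used 0.065 mg/mL RORγt LBD with 60 μM 1,8-ANS in 100 mM Hepes pH 7.0, 10 mM NaCl, 2.5 mM GSH and 0.002% Tween-20, heated at 1 °C/min. Fluorescence was excited at 380–400 nm and emission read at 500 nm.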

[2] = tested on: IL-17 production by CD4 T cells; assay: Human Th17 assay (IL-17 production by CD4 T cells under Th17 differentiation); type: cell-based; details: human CD4+ T cells, IL-17 after 3 days, read-out: Human Th17 Assay, IC50 μM
From the text: The human Th17 assay tests the effect of RORγt modulatory compounds on IL-17 production by CD4 T cells under conditions which favor Th17 differentiation.
Total CD4^+ T cells were isolated from the peripheral blood mononuclear cells (PBMC) of healthy donors using a CD4^+ T cell isolation kit II, following the manufacturer's instructions (Miltenyi Biotec). Cells were resuspended in a medium of RPMI-1640 supplemented with 10% fetal bovine serum, penicillin, streptomycin, glutamate, and β-mercaptoethanol and were added to 96-well plates at 1.5×10^5 per 100 μL per well. 50 μL of compound at titrated concentrations in DMSO were added into each well at final DMSO concentration at 0.2%. Cells were incubated for 1 hour, then 50 μL of Th17 cell differentiation medium was added to each well. The final concentrations of antibodies and cytokines (R&D Systems) in differentiation medium were: 3×10^6/mL anti-CD3/CD28 beads (prepared using human T cell activation/expansion kit, Miltenyi Biotec), 10 μg/mL anti-IL4, 10 μg/mL anti-IFNγ, 10 ng/mL IL1β, 10 ng/mL IL23, 50 ng/mL IL6, 3 ng/mL TGFβ and 20 U/mL IL2. Cells were cultured at 37° C. and 5% CO2 for 3 days. Supernatants were collected and the accumulated IL-17 in culture was measured by using MULTI-SPOT® Cytokine Plate following manufacture's instruction (Meso Scale Discovery). The plate was read using Sector Imager 6000, and IL-17 concentration was extrapolated from the standard curve. The IC50s were determined by GraphPad.

human RORγt LBD, sequence (P51449 258-518): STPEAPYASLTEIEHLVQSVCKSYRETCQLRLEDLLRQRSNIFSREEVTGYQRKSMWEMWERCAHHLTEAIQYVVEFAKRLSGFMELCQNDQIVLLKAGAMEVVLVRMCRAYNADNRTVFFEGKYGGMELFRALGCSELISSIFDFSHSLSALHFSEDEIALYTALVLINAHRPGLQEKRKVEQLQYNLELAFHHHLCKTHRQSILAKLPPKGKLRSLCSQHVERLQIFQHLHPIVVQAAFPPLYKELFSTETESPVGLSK
human RORγt ligand binding domain (RORγt LBD), sequence (P51449 other isoform, or with tags, fused parts or gaps): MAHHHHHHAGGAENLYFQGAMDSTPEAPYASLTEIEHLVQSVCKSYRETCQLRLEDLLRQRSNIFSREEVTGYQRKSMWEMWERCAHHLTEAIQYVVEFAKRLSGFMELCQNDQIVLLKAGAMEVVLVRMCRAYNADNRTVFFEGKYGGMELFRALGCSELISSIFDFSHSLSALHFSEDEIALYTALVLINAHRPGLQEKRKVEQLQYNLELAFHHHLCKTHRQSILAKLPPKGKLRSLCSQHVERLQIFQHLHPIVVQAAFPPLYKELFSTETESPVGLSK

Row | SMILES | IC50 (human RORγt LBD) [µM] | inhibition at 6 µM (human RORγt LBD) [%] | Kd [1] [µM] | IC50 ([2]; Homo sapiens, CD4+ T, 72 h) [µM] | IC50 [2] [µM] | RORγt reporter Assay, % inhibition @ 6 μM (human RORγt LBD) [%]
1 | COc1nc2c(F)cc(C(O)(c3ccc(C(F)(F)F)nc3)c3cncn3C)cc2c(Cl)c1Cc1ccc(-n2cccn2)cc1 (single isomer, unassigned) [Example 58B, (3-(4-(1H-pyrazol-1-yl)benzyl)-4-chloro-8-fluoro-2-methoxyquinolin-6-yl)(1-methyl-1H-imidazol-5-yl)(6-(trifluoromethyl)pyridin-3-yl)methanol] | 0.055 | 103 | 0.014 | 0.1 | – | –
2 | CCc1nc2ccc(C(O)(c3cnnn3C)C3CN(S(C)(=O)=O)C3)cc2c(Cl)c1Cc1ccc(C(F)(F)F)cc1 (single isomer, unassigned) [Example 91C, (4-Chloro-2-ethyl-3-(4-(trifluoromethyl)benzyl)quinolin-6-yl)(1-methyl-1H-1,2,3-triazol-5-yl)(1-(methylsulfonyl)azetidin-3-yl)methanol] | – | – | – | – | 0.0025 | 102
3 | COc1nc2ccc(C(O)(c3ccc(C)nc3C)c3cnnn3C)cc2c(C#N)c1Cc1ccc(C(F)(F)F)cc1 (single isomer, unassigned) [Example 78C, 6-((2,6-Dimethylpyridin-3-yl)(hydroxy)(1-methyl-1H-1,2,3-triazol-5-yl)methyl)-2-methoxy-3-(4-(trifluoromethyl)benzyl)quinoline-4-carbonitrile] | – | – | – | 0.004 | – | 99
4 | COc1nc2ccc(C(O)(c3ccc(C)nc3C)c3cnnn3C)cc2c(Cl)c1Cc1ccc(C(F)(F)F)cc1 (single isomer, unassigned) [Example 77B, (4-chloro-2-methoxy-3-(4-(trifluoromethyl)benzyl)quinolin-6-yl)(2,6-dimethylpyridin-3-yl)(1-methyl-1H-1,2,3-triazol-5-yl)methanol] | – | 98 | – | – | 0.36 | –
5 | COc1nc2ccc(C(O)(c3cnnn3C)c3cnc(C)n3C)cc2c(Cl)c1Cc1ccc(C(F)(F)F)cc1 (single isomer, unassigned) [Example 80B, (4-chloro-2-methoxy-3-(4-(trifluoromethyl)benzyl)quinolin-6-yl)(1,2-dimethyl-1H-imidazol-5-yl)(1-methyl-1H-1,2,3-triazol-5-yl)methanol] | – | 92 | – | – | 0.05 | –
6 | CCc1nc2ccc(C(O)(c3cnnn3C)C3CN(S(C)(=O)=O)C3)cc2c(Cl)c1Cc1ccc(C(F)(F)F)cc1 (single isomer, unassigned) [Example 91B, (4-Chloro-2-ethyl-3-(4-(trifluoromethyl)benzyl)quinolin-6-yl)(1-methyl-1H-1,2,3-triazol-5-yl)(1-(methylsulfonyl)azetidin-3-yl)methanol] | – | 97 | – | – | 0.022 | –
7 | Cn1cncc1C(O)(c1ccc(C(F)(F)F)nc1)c1ccc2nc(C#N)c(Cc3ccc(-n4cccn4)cc3)c(C#N)c2c1 (single isomer, unassigned) [Example 72C, 3-(4-(1H-Pyrazol-1-yl)benzyl)-6-(hydroxy(1-methyl-1H-imidazol-5-yl)(6-(trifluoromethyl)pyridin-3-yl)methyl)quinoline-2,4-dicarbonitrile] | – | 100 | – | 0.055 | – | –
8 | COc1nc2ccc(C(O)(c3ccc(C)nc3C)c3cnnn3C)cc2c(Cl)c1Cc1ccc(C(F)(F)F)cc1 (single isomer, unassigned) [Example 77C, (4-chloro-2-methoxy-3-(4-(trifluoromethyl)benzyl)quinolin-6-yl)(2,6-dimethylpyridin-3-yl)(1-methyl-1H-1,2,3-triazol-5-yl)methanol] | – | – | – | – | 0.0021 | 100
9 | Cn1cncc1C(O)(c1ccc(C(F)(F)F)nc1)c1ccc2nc(C#N)c(Cc3ccc(-n4cccn4)cc3)c(C#N)c2c1 (stereo not drawn) [Example 72B, 3-(4-(1H-Pyrazol-1-yl)benzyl)-6-(hydroxy(1-methyl-1H-imidazol-5-yl)(6-(trifluoromethyl)pyridin-3-yl)methyl)quinoline-2,4-dicarbonitrile] | – | 99 | – | 0.025 | – | –

Other lines, results leading:

Row | IC50 (human RORγt LBD) [µM] | inhibition at 6 µM (human RORγt LBD) [%] | Kd [1] [µM] | IC50 ([2]; Homo sapiens, CD4+ T, 72 h) [µM] | IC50 [2] [µM] | RORγt reporter Assay, % inhibition @ 6 μM (human RORγt LBD) [%] | SMILES
10 | 0.18 | 100 | 0.053 | 0.2 | – | – | COc1nc2c(C)cc(C(O)(c3ccc(Cl)cc3)c3cncn3C)cc2c(Cl)c1Cc1ccc(-n2cccn2)cc1 (stereo not drawn) [Example 28A, (3-(4-(1H-Pyrazol-1-yl)benzyl)-4-chloro-2-methoxy-8-methylquinolin-6-yl)(4-chlorophenyl)(1-methyl-1H-imidazol-5-yl)methanol.TFA]
11 | 0.047 | 100 | 0.0014 | 0.039 | – | – | COc1ccc(C(O)(c2ccc3nc(OC)c(Cc4ccc(-n5cccn5)cc4)c(Cl)c3c2)c2cncs2)cn1 (single isomer, unassigned) [Example 20B, (3-(4-(1H-pyrazol-1-yl)benzyl)-4-chloro-2-methoxyquinolin-6-yl)(6-methoxypyridin-3-yl)(thiazol-5-yl)methanol]
12 | 0.035 | 101 | 0.0063 | – | 0.01 | – | CON(C)c1nc2ccc(C(O)(c3ccc(C(F)(F)F)nc3)c3cncn3C)cc2c(Cl)c1Cc1ccc(-n2cccn2)cc1 (single isomer, unassigned) [Example 67B, (3-(4-(1H-pyrazol-1-yl)benzyl)-4-chloro-2-(methoxy(methyl)amino)quinolin-6-yl)(1-methyl-1H-imidazol-5-yl)(6-(trifluoromethyl)pyridin-3-yl)methanol]
13 | 0.018 | – | 0.0022 | – | 0.0045 | 97 | COc1nc2ccc(C(O)(c3ccc(C#N)cc3)c3cncn3C)cc2c(C#N)c1Cc1ccc(C(F)(F)F)cc1 (single isomer, unassigned) [Example 96C, 6-((4-cyanophenyl)(hydroxy)(1-methyl-1H-imidazol-5-yl)methyl)-2-methoxy-3-(4-(trifluoromethyl)benzyl)quinoline-4-carbonitrile]
14 | 0.045 | – | 0.015 | 0.033 | – | 101 | COc1nc2ccc(C(O)(c3ccc(C#N)cc3)c3cncn3C)cc2c(C#N)c1Cc1ccc(-n2cccn2)cc1 (single isomer, unassigned) [Example 76C, 3-(4-(1H-Pyrazol-1-yl)benzyl)-6-((4-cyanophenyl)(hydroxy)(1-methyl-1H-imidazol-5-yl)methyl)-2-methoxyquinoline-4-carbonitrile]
15 | – | – | – | 0.086 | – | 94 | COc1nc2ccc(C(O)(c3ccc(Cl)cc3)c3cncn3C)cc2c(Cl)c1Cc1ccc(-n2cncn2)cc1 (single isomer, unassigned) [Example 64C, (3-(4-(1H-1,2,4-triazol-1-yl)benzyl)-4-chloro-2-methoxyquinolin-6-yl)(4-chlorophenyl)(1-methyl-1H-imidazol-5-yl)methanol]
16 | 0.013 | 104 | – | 0.024 | – | – | Cn1cncc1C(O)(c1ccc2nc(Cl)c(Cc3ccc(-n4cccn4)cc3)c(Cl)c2c1)c1cncs1 (stereo not drawn) [Example 15, (3-(4-(1H-Pyrazol-1-yl)benzyl)-2,4-dichloroquinolin-6-yl)(1-methyl-1H-imidazol-5-yl)(thiazol-5-yl)methanol.TFA]
17 | 0.29 | – | – | – | 0.3 | 97 | Cc1cc(C(O)(c2ccc(Cl)cc2)c2cncn2C)cc2c(Cl)c(Cc3ccc(-n4cccn4)cc3)c(Cl)nc12 (stereo not drawn) [Example 27, (3-(4-(1H-Pyrazol-1-yl)benzyl)-2,4-dichloro-8-methylquinolin-6-yl)(4-chlorophenyl)(1-methyl-1H-imidazol-5-yl)methanol.TFA salt]
